Test results reported in patent publication US9518022B2, “Anti-HIV compounds” (priority 2014, dated 2016).
Read-outs that look alike come from different tables or passages of the source.

Assay: Cytotoxicity assay (AlamarBlue) in mock infected MT-2 cells
Assay type: cell-based
Conditions: human
In short: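 MT-2 cells at 2×10^4 cells/well, mock-infected, treated with 3-fold serial compound dilutions for 96 h at 37 °C. AlamarBlue added for 3 h, fluorescence read at 545/590 nm; % inhibition versus solvent control fitted to a 4-parameter logistic to give CC50.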

Row | SMILES | CC50 at 96 h [µM] | CC50 at 96 h (mock infected MT-2 cells, 96 hours, AlamarBlue, read-out: CC50) [µM]
1 | COc1ccc(/C=C/C2NCCc3cc(OCc4ccccc4)c(OC)cc32)cc1Cn1ccnc1C (centres unmarked) [EN, 6-(benzyloxy)-7-methoxy-1-[(E)-2-{4-methoxy-3-[(2-methyl-1H-imidazol-1-yl)methyl]phenyl}ethenyl]-1,2,3,4-tetrahydroisoquinoline] | 4.03 | 
2 | COc1ccc(/C=C/C2NCCc3cc(OCc4ccccc4)c(OC)cc32)cc1COCC(F)(F)F (centres unmarked) [EO, 6-(benzyloxy)-7-methoxy-1-[(E)-2-{4-methoxy-3-[(2,2,2-trifluoroethoxy)methyl]phenyl}ethenyl]-1,2,3,4-tetrahydroisoquinoline] | 1.94 | 
3 | COc1cc2c(cc1OCc1ccccc1)CCNC2/C=C/c1ccc(C(=O)O)cc1 (centres unmarked) [EQ, 4-[(E)-2-[6-(benzyloxy)-7-methoxy-1,2,3,4-tetrahydroisoquinolin-1-yl]ethenyl]benzoic acid] | 10 | 
4 | COc1cc2c(cc1OCc1ccccc1)CCNC2/C=C/c1cccc(C(=O)O)c1 (centres unmarked) [ER, 3-[(E)-2-[6-(benzyloxy)-7-methoxy-1,2,3,4-tetrahydroisoquinolin-1-yl]ethenyl]benzoic acid] | 10 | 
5 | COc1cc2c(cc1OCc1ccccc1)CCNC2/C=C/c1ccccc1C(=O)O (centres unmarked) [ES, 2-[(E)-2-[6-(benzyloxy)-7-methoxy-1,2,3,4-tetrahydroisoquinolin-1-yl]ethenyl]benzoic acid] | 10 | 
6 | CCOC(=O)c1ccccc1/C=C/C1NCCc2cc(OCc3ccccc3)c(OC)cc21 (centres unmarked) [ET, ethyl 2-[(E)-2-[6-(benzyloxy)-7-methoxy-1,2,3,4-tetrahydroisoquinolin-1-yl]ethenyl]benzoate] | 9.9 | 
7 | COc1ccc(CCC2NCCc3cc(OC)c(OC)cc32)cc1OC (centres unmarked) [Example A, 1-[2-(3,4-Dimethoxyphenyl)ethyl]-6,7-dimethoxy-1,2,3,4-tetrahydroisoquinoline] | > 10 | 
8 | CCc1cc(OC)c(OCc2ccccc2)cc1/C=C/C1NCCc2cc(OCc3ccccc3)c(OC)cc21 (centres unmarked) [Example AA, 6-benzyloxy-1-[(E)-2-(5-benzyloxy-2-ethyl-4-methoxy-phenyl)vinyl]-7-methoxy-1,2,3,4-tetrahydroisoquinoline] | 3.89 | 
9 | COc1ccc(/C=C/C2NCCc3cc(OCc4ccccc4)c(OC)cc32)cc1OCc1ccccc1 (centres unmarked) [Example AB, 6-benzyloxy-1-[(E)-2-(3-benzyloxy-4-methoxy-phenyl)vinyl]-7-methoxy-1,2,3,4-tetrahydroisoquinoline] |  | 3.96
10 | COc1cc(Cl)c(/C=C/C2NCCc3cc(OCc4ccccc4)c(OC)cc32)cc1OCc1ccccc1 (centres unmarked) [Example AC, 6-benzyloxy-1-[(E)-2-(5-benzyloxy-2-chloro-4-methoxy-phenyl)vinyl]-7-methoxy-1,2,3,4-tetrahydroisoquinoline] | 1.9 | 
11 | COc1cc2c(cc1OCc1ccccc1)CCNC2/C=C/c1cc(OCc2ccccc2)ccc1C (centres unmarked) [Example AD, 6-benzyloxy-1-[(E)-2-(5-benzyloxy-2-methyl-phenyl)vinyl]-7-methoxy-1,2,3,4-tetrahydroisoquinoline] | 3.22 | 
12 | COc1cc(C)c(/C=C/C2=NCCc3cc(OCc4ccccc4)c(OC)cc32)cc1OCc1ccccc1 [Example AE, 6-benzyloxy-1-[(E)-2-(5-benzyloxy-4-methoxy-2-methyl-phenyl)vinyl]-7-methoxy-3,4-dihydroisoquinoline] | 33.5 | 
13 | COc1ccc(/C=C/C2NCCc3cc(OCc4ccccc4)c(OC)cc32)c(C)c1 (centres unmarked) [Example AG, 6-benzyloxy-7-methoxy-1-[(E)-2-(4-methoxy-2-methyl-phenyl)vinyl]-1,2,3,4-tetrahydroisoquinoline] | 9.83 | 
14 | COc1cc(C)c(/C=C/C2NCCc3cc(OCc4ccccc4)c(OC)cc32)cc1OC (centres unmarked) [Example AH, 6-benzyloxy-1-[(E)-2-(4,5-dimethoxy-2-methyl-phenyl)vinyl]-7-methoxy-1,2,3,4-tetrahydroisoquinoline] | 2.4 | 
15 | COCCCCOc1cc(OC)ccc1/C=C/C1NCCc2cc(OCc3ccccc3)c(OC)cc21 (centres unmarked) [Example AI, (E)-6-(benzyloxy)-7-methoxy-1-(4-methoxy-2-(4-methoxybutoxy)styryl)-1,2,3,4-tetrahydroisoquinoline] | 5.6 | 
16 | COc1cc2c(cc1OCc1ccccc1)CCNC2/C=C/c1ccc(OC(F)(F)F)cc1C (centres unmarked) [Example AJ, (E)-6-(benzyloxy)-7-methoxy-1-(2-methyl-4-(trifluoromethoxy)styryl)-1,2,3,4-tetrahydroisoquinoline] | 5 | 
17 | COc1cc2c(cc1OCc1ccccc1)CCNC2/C=C/c1ccnn1C (centres unmarked) [Example AK, 6-benzyloxy-7-methoxy-1-[(E)-2-(2-methylpyrazol-3-yl)vinyl]-1,2,3,4-tetrahydroisoquinoline] | 10 | 
18 | CCn1cc(/C=C/C2NCCc3cc(OCc4ccccc4)c(OC)cc32)cn1 (centres unmarked) [Example AL, 6-Benzyloxy-1-[(E)-2-(1-ethylpyrazol-4-yl)vinyl]-7-methoxy-1,2,3,4-tetrahydroisoquinoline] | 24.2 | 
19 | COc1cc2c(cc1OCc1ccccc1)CCNC2/C=C/c1cc(OC)c(OC)c(OC)c1 (centres unmarked) [Example AM, 6-Benzyloxy-7-methoxy-1-[(E)-2-(3,4,5-trimethoxyphenyl)vinyl]-1,2,3,4-tetrahydroisoquinoline] | 6 | 
20 | COc1cc2c(cc1OCc1ccccc1)CCNC2/C=C/c1ccc(OC)c2occc12 (centres unmarked) [Example AN, 6-Benzyloxy-7-methoxy-1-[(E)-2-(7-methoxybenzofuran-4-yl)vinyl]-1,2,3,4-tetrahydroisoquinoline] | 3.7 | 
21 | COc1cc2c(cc1OCc1ccccc1)CCNC2/C=C/c1ccc(OC)c2ccoc12 (centres unmarked) [Example AO, 6-Benzyloxy-7-methoxy-1-[(E)-2-(4-methoxybenzofuran-7-yl)vinyl]-1,2,3,4-tetrahydroisoquinoline] | 9.94 | 
22 | COc1ccc(/C=C/C2c3cc(OC)c(OCc4ccccc4)cc3CCN2C(=O)c2cnccn2)cc1OCc1ccccc1 (centres unmarked) [Example B, [6-Benzyloxy-1-[(E)-2-(3-benzyloxy-4-methoxy-phenyl)vinyl]-7-methoxy-3,4-dihydro-1H-isoquinolin-2-yl]-pyrazin-2-yl-methanone] | 5 | 
23 | COc1cc2c(cc1OC)C(/C=C/c1cc(OCc3ccccc3)c(OC)cc1C)NCC2 (centres unmarked) [Example C, 1-[(E)-2-(5-Benzyloxy-4-methoxy-2-methyl-phenyl)vinyl]-6,7-dimethoxy-1,2,3,4-tetrahydroisoquinoline] | 11 | 
24 | CCCCN1CCc2cc(OC)c(OCc3ccccc3)cc2C1/C=C/c1ccc(OCc2ccccc2)c(OC)c1 (centres unmarked) [Example D, 7-Benzyloxy-1-[(E)-2-(4-benzyloxy-3-methoxy-phenyl)vinyl]-2-butyl-6-methoxy-3,4-dihydro-1H-isoquinoline] | > 10 | 
25 | COc1cc(C)c(/C=C/C2c3cc(OC)c(OCc4ccccc4)cc3CCN2C)cc1OCc1ccccc1 (centres unmarked) [Example E, 6-Benzyloxy-1-[(E)-2-(5-benzyloxy-4-methoxy-2-methyl-phenyl)vinyl]-7-methoxy-2-methyl-3,4-dihydro-1H-isoquinoline] | 7.17 | 
26 | CCCCN1CCc2cc(OCc3ccccc3)c(OC)cc2C1/C=C/c1ccc(OC)c(OCc2ccccc2)c1 (centres unmarked) [Example G, 6-Benzyloxy-1-[(E)-2-(3-benzyloxy-4-methoxy-phenyl)vinyl]-2-butyl-7-methoxy-3,4-dihydro-1H-isoquinoline] | 5 | 
